Legend:
[1] = tested on: NCI-H1975; assay: Tumor cell proliferation inhibition (CellTiter-Meiluncell Luminescent Cell Viability Assay), NCI-H1975; conditions: Homo sapiens, NCI-H1975, read-out: inhibitory activity (IC50, nM) against tumor cells proliferation, H1975
[2] = tested on: MM.1S; assay: Tumor cell proliferation inhibition (CellTiter-Meiluncell Luminescent Cell Viability Assay), MM.1S; conditions: Homo sapiens, MM1.S, read-out: inhibitory activity (IC50, nM) against tumor cells proliferation, MM.1S
Protocol: (§1) The tumor cells used herein were cultured in a cell culture medium listed in table 2 at 37°C in an incubator with 5% CO2. Prior to experimentation, all cell lines used were correctly identified by STR profiling, and tested negative for mycoplasma contamination using a mycoplasma detection kit through routine screenings.
(§2) On the following day, the test compounds of the present disclosure were subjected to serial dilution. […] Subsequently, 0.5 µL of the test compound dilution was transferred into the 96-well plate containing the cells, with each well containing 100 µL of cell culture medium. […] Into the 96-well plate, the diluted test compounds and corresponding detection reagents were added, resulting in final test compound concentrations of 500 nM and 10 nM, respectively.
(§3) After the cells were treated with the compounds of the present disclosure for a specified period (the treatment durations were shown in Table 3), the cell viability assay reagent was added to the culture medium according to the kit's instructions to determine cell viability. […] All controls were treated using the same procedure as the compounds of the present disclosure. The growth inhibition curves for the compounds of the present disclosure were plotted using Prism GraphPad software, and the IC50 values were calculated therefrom.

[3] = target: T1, human Cereblon WT GST-tagged protein (Homo sapiens, UniProt Q96SW2); assay: CRBN-binding affinity by HTRF (CEREBLON BINDING kit); conditions: HTRF inhibitory activity, CEREBLON BINDING kit; read-out: HTRF IC50
T1 construct: purchased CISBIO 64BDCRBNPEH

[4] = target: T2, WEE1 (Homo sapiens, UniProt P30291+Q96SW2); assay: Western-blot assay of substrate protein degradation in hPBMCs, WEE1; type: cell-based; conditions: 24 hours of compound treatment
T2 construct: endogenous in cells; host or cells: hPBMCs (Milecell Biotechnologies)

[5] = target: T3, CK1α (Homo sapiens, UniProt P48729+Q96SW2); assay: Western-blot assay of substrate protein degradation in hPBMCs, CK1α; type: cell-based; conditions: 24 hours of compound treatment
T3 construct: endogenous in cells; host or cells: hPBMCs (Milecell Biotechnologies)

[6] = target: T4, IKZF1 (Homo sapiens, UniProt Q13422+Q96SW2); assay: Western-blot assay of substrate protein degradation in hPBMCs, IKZF1; type: cell-based; conditions: 24 hours of compound treatment
T4 construct: endogenous in cells; host or cells: hPBMCs (Milecell Biotechnologies)

[7] = target: T5, GSPT1 (Homo sapiens, UniProt P15170+Q96SW2); assay: Western-blot assay of substrate protein degradation in hPBMCs, GSPT1; type: cell-based; conditions: 24 hours of compound treatment
T5 construct: endogenous in cells; host or cells: hPBMCs (Milecell Biotechnologies)

[8] = target: T6, IKZF3 (Homo sapiens, UniProt Q96SW2+Q9UKT9); assay: Western-blot assay of substrate protein degradation in hPBMCs, IKZF3; type: cell-based; conditions: 24 hours of compound treatment
T6 construct: endogenous in cells; host or cells: hPBMCs (Milecell Biotechnologies)

[9] = tested on: Jurkat; assay: Tumor cell proliferation inhibition (CellTiter-Meiluncell Luminescent Cell Viability Assay), Jurkat; conditions: Homo sapiens, read-out: inhibitory activity (IC50, nM) against tumor cells proliferation, Jurkat
[10] = tested on: SR; assay: Tumor cell proliferation inhibition (CellTiter-Meiluncell Luminescent Cell Viability Assay), SR; conditions: Homo sapiens, read-out: inhibitory activity (IC50, nM) against tumor cells proliferation, SR
[11] = target: T7, IKZF2 (Homo sapiens, UniProt Q96SW2+Q9UKS7); assay: Western-blot assay of substrate protein degradation in hPBMCs, IKZF2; type: cell-based; conditions: 24 hours of compound treatment
T7 construct: endogenous in cells; host or cells: hPBMCs (Milecell Biotechnologies)

[12] = tested on: CCRF-CEM; assay: Tumor cell proliferation inhibition (CellTiter-Meiluncell Luminescent Cell Viability Assay), CCRF-CEM; conditions: Homo sapiens, read-out: inhibitory activity (IC50, nM) against tumor cells proliferation, CCRF-CEM
[13] = tested on: Human acute T lymphocytic leukemia cells (Molt-4); assay: Tumor cell proliferation inhibition (CellTiter-Meiluncell Luminescent Cell Viability Assay), Molt-4; conditions: MOLT-4, read-out: inhibitory activity (IC50, nM) against tumor cells proliferation, Molt-4
[14] = tested on: MV-4-11; assay: Tumor cell proliferation inhibition (CellTiter-Meiluncell Luminescent Cell Viability Assay), MV-4-11; conditions: Homo sapiens, MV4-11, read-out: inhibitory activity (IC50, nM) against tumor cells proliferation, MV-4-11
Protocol: as §1, §2, §3

[15] = compounds tested at 50 nM and 500 nM (concentration of the table not stated)
[16] = 50 nM and 500 nM tested (concentration behind the class not stated)

T7 sequence (Q9UKS7 whole entry): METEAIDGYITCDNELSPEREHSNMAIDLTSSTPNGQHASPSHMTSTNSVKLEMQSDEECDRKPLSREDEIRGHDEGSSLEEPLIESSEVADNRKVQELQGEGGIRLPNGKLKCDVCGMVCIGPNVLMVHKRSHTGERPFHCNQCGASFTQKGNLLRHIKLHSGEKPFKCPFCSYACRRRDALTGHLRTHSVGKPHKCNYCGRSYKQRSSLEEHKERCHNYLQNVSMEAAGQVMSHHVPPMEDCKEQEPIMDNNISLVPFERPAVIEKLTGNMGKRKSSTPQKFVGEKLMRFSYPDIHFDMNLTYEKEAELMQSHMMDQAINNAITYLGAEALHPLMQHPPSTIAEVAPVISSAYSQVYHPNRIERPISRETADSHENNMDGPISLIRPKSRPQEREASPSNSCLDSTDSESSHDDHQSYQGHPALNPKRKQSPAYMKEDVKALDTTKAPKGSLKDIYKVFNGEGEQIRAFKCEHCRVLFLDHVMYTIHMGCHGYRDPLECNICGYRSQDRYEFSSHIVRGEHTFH
T7 sequence (Q96SW2 whole entry): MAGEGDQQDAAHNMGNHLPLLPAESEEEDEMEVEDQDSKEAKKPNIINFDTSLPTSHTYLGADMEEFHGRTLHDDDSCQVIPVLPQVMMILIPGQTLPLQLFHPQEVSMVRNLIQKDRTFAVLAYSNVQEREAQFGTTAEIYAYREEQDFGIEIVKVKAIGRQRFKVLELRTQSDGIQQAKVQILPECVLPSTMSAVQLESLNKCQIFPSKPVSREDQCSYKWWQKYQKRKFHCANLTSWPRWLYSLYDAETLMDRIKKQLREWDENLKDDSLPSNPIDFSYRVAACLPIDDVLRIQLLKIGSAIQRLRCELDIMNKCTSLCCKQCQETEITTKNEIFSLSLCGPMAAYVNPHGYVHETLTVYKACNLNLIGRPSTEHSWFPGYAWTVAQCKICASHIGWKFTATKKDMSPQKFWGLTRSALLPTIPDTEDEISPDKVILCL
T7 sequence (Q16531 whole entry partner): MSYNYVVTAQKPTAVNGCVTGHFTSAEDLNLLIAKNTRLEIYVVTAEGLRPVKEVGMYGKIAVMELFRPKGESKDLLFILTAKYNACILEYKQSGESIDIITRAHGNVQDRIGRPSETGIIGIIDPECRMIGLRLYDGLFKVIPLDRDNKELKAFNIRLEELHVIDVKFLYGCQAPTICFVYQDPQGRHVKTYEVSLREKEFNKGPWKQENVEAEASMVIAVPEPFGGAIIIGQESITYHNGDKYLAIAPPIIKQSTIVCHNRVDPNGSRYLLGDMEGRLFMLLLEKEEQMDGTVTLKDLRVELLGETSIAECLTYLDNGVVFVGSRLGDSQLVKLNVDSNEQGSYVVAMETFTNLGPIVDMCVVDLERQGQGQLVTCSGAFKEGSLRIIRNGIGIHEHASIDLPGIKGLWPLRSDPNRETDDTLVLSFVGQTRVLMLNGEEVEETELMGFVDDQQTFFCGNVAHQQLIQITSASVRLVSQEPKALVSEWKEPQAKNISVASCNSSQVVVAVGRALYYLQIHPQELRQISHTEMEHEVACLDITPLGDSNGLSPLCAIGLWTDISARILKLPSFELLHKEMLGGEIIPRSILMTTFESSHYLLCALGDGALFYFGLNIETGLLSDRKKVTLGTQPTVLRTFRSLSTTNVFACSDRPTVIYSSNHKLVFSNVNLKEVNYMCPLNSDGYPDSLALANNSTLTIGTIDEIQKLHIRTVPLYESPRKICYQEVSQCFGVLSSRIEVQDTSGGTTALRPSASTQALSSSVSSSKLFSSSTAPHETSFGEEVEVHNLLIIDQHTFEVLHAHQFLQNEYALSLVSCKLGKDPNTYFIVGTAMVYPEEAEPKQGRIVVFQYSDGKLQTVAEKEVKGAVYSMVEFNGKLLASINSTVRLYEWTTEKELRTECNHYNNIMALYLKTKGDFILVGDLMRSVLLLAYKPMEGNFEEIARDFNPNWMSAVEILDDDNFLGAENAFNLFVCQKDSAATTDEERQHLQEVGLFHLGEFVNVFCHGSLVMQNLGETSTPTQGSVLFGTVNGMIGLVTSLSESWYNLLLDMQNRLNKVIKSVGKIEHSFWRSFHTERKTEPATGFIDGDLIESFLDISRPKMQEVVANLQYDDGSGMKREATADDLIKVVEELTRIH
T4 sequence (Q13422 whole entry): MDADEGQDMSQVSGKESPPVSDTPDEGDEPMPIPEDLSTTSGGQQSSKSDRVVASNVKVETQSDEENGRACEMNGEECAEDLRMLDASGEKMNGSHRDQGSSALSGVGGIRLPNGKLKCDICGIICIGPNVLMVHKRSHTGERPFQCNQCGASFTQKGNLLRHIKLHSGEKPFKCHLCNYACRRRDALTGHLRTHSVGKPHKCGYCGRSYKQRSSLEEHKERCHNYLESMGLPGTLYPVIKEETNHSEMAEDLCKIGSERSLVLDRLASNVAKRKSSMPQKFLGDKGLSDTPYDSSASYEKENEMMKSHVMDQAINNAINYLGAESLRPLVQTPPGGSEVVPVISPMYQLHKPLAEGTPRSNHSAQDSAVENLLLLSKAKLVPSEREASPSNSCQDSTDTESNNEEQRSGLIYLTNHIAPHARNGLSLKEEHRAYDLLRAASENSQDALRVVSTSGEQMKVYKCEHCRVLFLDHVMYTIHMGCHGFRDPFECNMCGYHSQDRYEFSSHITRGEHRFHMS
T4 sequence (Q96SW2 whole entry): as the sequence (Q96SW2 whole entry) above
T4 sequence (Q16531 whole entry partner): as the sequence (Q16531 whole entry partner) above
T1 sequence (Q96SW2 whole entry): as the sequence (Q96SW2 whole entry) above
T5 sequence (P15170 whole entry): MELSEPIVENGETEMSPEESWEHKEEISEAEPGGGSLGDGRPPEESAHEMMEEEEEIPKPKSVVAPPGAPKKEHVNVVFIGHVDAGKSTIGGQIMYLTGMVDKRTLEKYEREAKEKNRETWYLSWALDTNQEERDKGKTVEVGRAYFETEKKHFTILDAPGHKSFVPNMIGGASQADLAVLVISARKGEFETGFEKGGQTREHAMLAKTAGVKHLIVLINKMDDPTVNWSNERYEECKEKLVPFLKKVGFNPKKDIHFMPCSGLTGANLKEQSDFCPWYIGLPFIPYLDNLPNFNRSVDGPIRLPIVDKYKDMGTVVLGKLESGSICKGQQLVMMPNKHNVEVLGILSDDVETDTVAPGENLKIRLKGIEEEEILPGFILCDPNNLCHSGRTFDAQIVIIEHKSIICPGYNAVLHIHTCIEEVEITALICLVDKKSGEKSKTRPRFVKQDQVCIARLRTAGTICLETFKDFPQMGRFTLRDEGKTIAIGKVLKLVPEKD
T5 sequence (Q96SW2 whole entry): as the sequence (Q96SW2 whole entry) above
T5 sequence (Q16531 whole entry partner): as the sequence (Q16531 whole entry partner) above
T3 sequence (P48729 whole entry): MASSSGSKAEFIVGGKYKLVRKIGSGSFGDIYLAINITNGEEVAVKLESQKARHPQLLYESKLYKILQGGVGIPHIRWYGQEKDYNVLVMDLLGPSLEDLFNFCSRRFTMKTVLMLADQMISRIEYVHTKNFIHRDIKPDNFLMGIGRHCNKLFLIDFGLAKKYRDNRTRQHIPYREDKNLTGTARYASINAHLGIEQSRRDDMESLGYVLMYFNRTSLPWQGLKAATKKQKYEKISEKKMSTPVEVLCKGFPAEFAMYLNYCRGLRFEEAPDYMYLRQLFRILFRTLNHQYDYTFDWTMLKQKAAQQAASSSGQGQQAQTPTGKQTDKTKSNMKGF
T3 sequence (Q96SW2 whole entry): as the sequence (Q96SW2 whole entry) above
T3 sequence (Q16531 whole entry partner): as the sequence (Q16531 whole entry partner) above
T6 sequence (Q9UKT9 whole entry): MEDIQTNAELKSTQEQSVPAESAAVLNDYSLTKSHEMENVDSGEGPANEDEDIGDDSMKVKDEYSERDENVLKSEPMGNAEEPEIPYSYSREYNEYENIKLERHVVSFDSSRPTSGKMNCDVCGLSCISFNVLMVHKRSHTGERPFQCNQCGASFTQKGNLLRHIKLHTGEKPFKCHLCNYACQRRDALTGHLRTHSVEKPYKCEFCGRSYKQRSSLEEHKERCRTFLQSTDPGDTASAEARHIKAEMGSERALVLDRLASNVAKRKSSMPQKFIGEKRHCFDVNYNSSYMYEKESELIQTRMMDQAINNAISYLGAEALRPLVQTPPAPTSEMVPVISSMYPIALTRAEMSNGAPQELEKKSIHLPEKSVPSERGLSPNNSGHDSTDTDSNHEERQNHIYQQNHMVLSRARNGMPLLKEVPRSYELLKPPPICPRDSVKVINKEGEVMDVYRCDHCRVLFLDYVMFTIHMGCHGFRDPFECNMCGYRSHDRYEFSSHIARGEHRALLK
T6 sequence (Q96SW2 whole entry): as the sequence (Q96SW2 whole entry) above
T6 sequence (Q16531 whole entry partner): as the sequence (Q16531 whole entry partner) above

| IC50 [1] [nM] | IC50 [2] [nM] | IC50 [3] [nM] | IC50 [9] [nM] | IC50 [10] [nM] | Compound | Weel substrate protein remaining % [4, 15] | CK1a substrate protein remaining % [5, 15] | IKZF 1 substrate protein remaining % [6, 15] | GSPT1 substrate protein remaining % [7, 15] | IKZF3 substrate protein remaining % [8, 15] | IKZF2 substrate protein remaining % [11, 15] | Weel substrate protein remaining % [4, 16] | CK1a substrate protein remaining % [5, 16] | IKZF 1 substrate protein remaining % [6, 16] | GSPT1 substrate protein remaining % [7, 16] | IKZF3 substrate protein remaining % [8, 16] | IC50 [12] [nM] | IC50 [13] [nM] | IC50 [14] [nM] | IKZF2 substrate protein remaining % [11, 16] |
| --- | --- | --- | --- | --- | --- | --- | --- | --- | --- | --- | --- | --- | --- | --- | --- | --- | --- | --- | --- | --- |
| 50 to 100 | < 1 | < 500 | 10 to 50 | 100 to 500 | O=C1CCC(N2Cc3cc(CN4CC=C(c5ncnc6sc7c(c56)CCC7)CC4)ccc3C2=O)C(=O)N1 (stereo not shown) [GT-04934, 3-(5-((4-(6,7-dihydro-5H-cyclopenta[4,5]thieno[2,3-d]pyrimidin-4-yl)-3,6-dihydropyridin-1(2H)-yl)methyl)-1-oxoisoindolin-2-yl)piperidine-2,6-dione] | A (0% ≤ substrate protein remaining % ≤ 80%) | A (0% ≤ substrate protein remaining % ≤ 80%) | A (0% ≤ substrate protein remaining % ≤ 80%) | A (0% ≤ substrate protein remaining % ≤ 80%) | A (0% ≤ substrate protein remaining % ≤ 80%) | A (0% ≤ substrate protein remaining % ≤ 80%) |  |  |  |  |  |  |  |  |  |
| 1 to 5 | < 1 | < 500 | 1 to 5 | 10 to 50 | CC(C)c1cc2c(C3=CCN(Cc4ccc5c(c4)CN(C4CCC(=O)NC4=O)C5=O)CC3)ncnc2s1 (stereo not shown) [GT-04935, 3-(5-((4-(6-isopropylthieno[2,3-d]pyrimidin-4-yl)-3,6-dihydropyridin-1(2H)-yl)methyl)-1-oxoisoindolin-2-yl)piperidine-2,6-dione] | A (0% ≤ substrate protein remaining % ≤ 80%) | A (0% ≤ substrate protein remaining % ≤ 80%) | A (0% ≤ substrate protein remaining % ≤ 80%) | A (0% ≤ substrate protein remaining % ≤ 80%) | A (0% ≤ substrate protein remaining % ≤ 80%) | A (0% ≤ substrate protein remaining % ≤ 80%) |  |  |  |  |  |  |  |  |  |
| 1 to 5 | < 1 | 500 to 1000 | 1 to 5 | 5 to 10 | O=C1CCC(N2Cc3cc(CN4CC=C(c5ncnc6sc(-c7ccccc7)cc56)CC4)ccc3C2=O)C(=O)N1 (stereo not shown) [GT-05101, 3-(1-oxo-5-((4-(6-phenylthieno[2,3-d]pyrimidin-4-yl)-3,6-dihydropyridin-1(2H)-yl)methyl)isoindolin-2-yl)piperidine-2,6-dione] | A (0% ≤ substrate protein remaining % ≤ 80%) | B (80%< substrate protein remaining %≤ 100%) | A (0% ≤ substrate protein remaining % ≤ 80%) | A (0% ≤ substrate protein remaining % ≤ 80%) | A (0% ≤ substrate protein remaining % ≤ 80%) | A (0% ≤ substrate protein remaining % ≤ 80%) |  |  |  |  |  |  |  |  |  |
|  | 500 to 1000 | 1500 to 1900 | 100 to 500 |  | O=C1CCC(N2C(=O)c3ccc(CN4CCN(c5n[nH]c6cc(F)ccc56)CC4)cc3C2=O)C(=O)N1 (stereo not shown) [GT-06632, 2-(2,6-dioxopiperidin-3-yl)-5-((4-(6-fluoro-1H-indazol-3-yl)piperazin-1-yl)methyl)isoindoline-1,3-dione] |  |  |  |  |  |  | A (0% ≤ substrate protein remaining % ≤ 80%) | A (0% ≤ substrate protein remaining % ≤ 80%) | A (0% ≤ substrate protein remaining % ≤ 80%) | A (0% ≤ substrate protein remaining % ≤ 80%) | A (0% ≤ substrate protein remaining % ≤ 80%) | 50 to 100 | 100 to 500 | 10 to 50 | A (0% ≤ substrate protein remaining % ≤ 80%) |
|  | 100 to 500 | 1500 to 1900 |  |  | O=C1CCC(N2C(=O)c3ccc(CN4CC=C(c5ncnc6sc7c(c56)CCCC7)CC4)cc3C2=O)C(=O)N1 (stereo not shown) [GT-06680, 2-(2,6-dioxopiperidin-3-yl)-5-((4-(5,6,7,8-tetrahydrobenzo[4,5]thieno[2,3-d]pyrimidin-4-yl)-3,6-dihydropyridin-1(2H)-yl)methyl)isoindoline-1,3-dione] |  |  |  |  |  |  | A (0% ≤ substrate protein remaining % ≤ 80%) | B (80%< substrate protein remaining %≤ 100%) | A (0% ≤ substrate protein remaining % ≤ 80%) | A (0% ≤ substrate protein remaining % ≤ 80%) | A (0% ≤ substrate protein remaining % ≤ 80%) | 100 to 500 | 100 to 500 | 10 to 50 | A (0% ≤ substrate protein remaining % ≤ 80%) |
|  | 100 to 500 |  |  |  | Cc1ccc(Sc2ccccc2N2CCN(Cc3ccc4c(c3)C(=O)N(C3CCC(=O)NC3=O)C4=O)CC2)c(C)c1 (stereo not shown) [GT-06761, 5-((4-(2-((2,4-dimethylphenyl)thio)phenyl)piperazin-1-yl)methyl)-2-(2,6-dioxopiperidin-3-yl)isoindoline-1,3-dione] |  |  |  |  |  |  | A (0% ≤ substrate protein remaining % ≤ 80%) | A (0% ≤ substrate protein remaining % ≤ 80%) | A (0% ≤ substrate protein remaining % ≤ 80%) | A (0% ≤ substrate protein remaining % ≤ 80%) | A (0% ≤ substrate protein remaining % ≤ 80%) | 100 to 500 | 100 to 500 | 10 to 50 | A (0% ≤ substrate protein remaining % ≤ 80%) |

| Compound | IC50 [1] [nM] | IC50 [2] [nM] | IC50 [3] [nM] | IC50 [9] [nM] | IC50 [10] [nM] | Weel substrate protein remaining % [4, 15] | CK1a substrate protein remaining % [5, 15] | IKZF 1 substrate protein remaining % [6, 15] | GSPT1 substrate protein remaining % [7, 15] | IKZF3 substrate protein remaining % [8, 15] | IKZF2 substrate protein remaining % [11, 15] | Weel substrate protein remaining % [4, 16] | CK1a substrate protein remaining % [5, 16] | IKZF 1 substrate protein remaining % [6, 16] | GSPT1 substrate protein remaining % [7, 16] | IKZF3 substrate protein remaining % [8, 16] | IC50 [12] [nM] | IC50 [13] [nM] | IC50 [14] [nM] | IKZF2 substrate protein remaining % [11, 16] |
| --- | --- | --- | --- | --- | --- | --- | --- | --- | --- | --- | --- | --- | --- | --- | --- | --- | --- | --- | --- | --- |
| O=C1CCC(N2C(=O)c3ccc(CN4CC=C(c5nccc(Cl)c5Cl)CC4)cc3C2=O)C(=O)N1 (stereo not shown) [GT-06608, 5-((3,4-dichloro-3',6'-dihydro-[2,4'-bipyridin]-1'(2'H)-yl)methyl)-2-(2,6-dioxopiperidin-3-yl)isoindoline-1,3-dione] |  | 100 to 500 | 1000 to 1500 | 100 to 500 |  |  |  |  |  |  |  | B (80%< substrate protein remaining %≤ 100%) | B (80%< substrate protein remaining %≤ 100%) | B (80%< substrate protein remaining %≤ 100%) | A (0% ≤ substrate protein remaining % ≤ 80%) | B (80%< substrate protein remaining %≤ 100%) | 100 to 500 | 100 to 500 | 10 to 50 | B (80%< substrate protein remaining %≤ 100%) |
| O=C1CCC(N2C(=O)c3ccc(CN4CCC(c5c[nH]c6cc(F)ccc56)CC4)cc3C2=O)C(=O)N1 (stereo not shown) [GT-06633, 2-(2,6-dioxopiperidin-3-yl)-5-((4-(6-fluoro-1H-indol-3-yl)piperidin-1-yl)methyl)isoindoline-1,3-dione] |  | 100 to 500 |  | 100 to 500 |  |  |  |  |  |  |  | A (0% ≤ substrate protein remaining % ≤ 80%) | A (0% ≤ substrate protein remaining % ≤ 80%) | A (0% ≤ substrate protein remaining % ≤ 80%) | A (0% ≤ substrate protein remaining % ≤ 80%) | A (0% ≤ substrate protein remaining % ≤ 80%) | 100 to 500 | 100 to 500 | 50 to 100 | A (0% ≤ substrate protein remaining % ≤ 80%) |
| Cn1cc(C2CCN(Cc3ccc4c(c3)C(=O)N(C3CCC(=O)NC3=O)C4=O)CC2)c2ccc(F)cc21 (stereo not shown) [GT-06635, 2-(2,6-dioxopiperidin-3-yl)-5-((4-(6-fluoro-1-methyl-1H-indol-3-yl)piperidin-1-yl)methyl)isoindoline-1,3-dione] |  | 100 to 500 |  | 100 to 500 |  |  |  |  |  |  |  | A (0% ≤ substrate protein remaining % ≤ 80%) | A (0% ≤ substrate protein remaining % ≤ 80%) | A (0% ≤ substrate protein remaining % ≤ 80%) | A (0% ≤ substrate protein remaining % ≤ 80%) | A (0% ≤ substrate protein remaining % ≤ 80%) | 50 to 100 | 50 to 100 | 10 to 50 | A (0% ≤ substrate protein remaining % ≤ 80%) |
